Assay results taken from patent publication US10597433B2, “Peptides and combination of peptides for use in immunotherapy against small cell lung cancer and other cancers” (Immatics Biotechnologies GmbH, priority 2015, dated 2020).

Key:
HLA-A*02:01 = HLA-A*02:01 (Homo sapiens, UniProt P04439, D140Y/D185E/D98H/E176V/E277Q/G131W/G231S/I119V/I121R/I166T/I218V/L300P/L318F/N151K/N90K/P208A/P217A/Q86G/Q94H/R138H/R169H/T345S); assay: MHC binding assay: UV-ligand exchange with ELISA detection of β2m of stabilized MHC complexes; details: binding to HLA-A*02:01
Text: Candidate peptides for T cell based therapies according to the present invention were further tested for their MHC binding capacity (affinity). The individual peptide-MHC complexes were produced by UV-ligand exchange, where a UV-sensitive peptide is cleaved upon UV-irradiation, and exchanged with the peptide of interest as analyzed. Only peptide candidates that can effectively bind and stabilize the peptide-receptive MHC molecules prevent dissociation of the MHC complexes. To determine the yield of the exchange reaction, an ELISA was performed based on the detection of the light chain (β2m) of stabilized MHC complexes. The assay was performed as generally described in Rodenko et al. (Rodenko et al., 2006).
96 well MAXISorp plates (NUNC) were coated over night with 2 μg/ml streptavidin in PBS at room temperature, washed 4× and blocked for 1 h at 37° C. in 2% BSA containing blocking buffer. Refolded HLA-A*02:01/MLA-001 monomers served as standards, covering the range of 15-500 ng/ml. Peptide-MHC monomers of the UV-exchange reaction were diluted 100 fold in blocking buffer. Samples were incubated for 1 h at 37° C., washed four times, incubated with 2 μg/ml HRP conjugated anti-β2m for 1 h at 37° C., washed again and detected with TMB solution that is stopped with […]. Absorption was measured at 450 nm. Candidate peptides that show a high exchange yield (preferably higher than 50%, most preferred higher than 75%) are generally preferred for a generation and production of antibodies or fragments thereof, and/or T cell receptors or fragments thereof, as they show sufficient avidity to the MHC molecules and prevent dissociation of the MHC complexes.

CD8+ T cells = assay: In vitro T-cell priming assay with aAPCs loaded with peptide/MHC complexes and anti-CD28 antibody, pMHC multimer readout; assay type: cell-based, human; details: for Wells positive [%]: HLA-A*02 restricted peptides, CD8+ T cells of healthy donors, Table 10B; for wells (in vitro immunogenicity, positive wells): CD8+ T cells of healthy HLA-A*02 donors, Table 10A
Text: In order to obtain information regarding the immunogenicity of the TUMAPs of the present invention, the inventors performed investigations using an in vitro T-cell priming assay based on repeated stimulations of CD8+ T cells with artificial antigen presenting cells (aAPCs) loaded with peptide/MHC complexes and anti-CD28 antibody.
In order to perform in vitro stimulations by artificial antigen presenting cells loaded with peptide-MHC complex (pMHC) and anti-CD28 antibody, the inventors first isolated CD8+ T cells from fresh HLA-A*02 leukapheresis products via positive selection using CD8 microbeads (Miltenyi Biotec, Bergisch-Gladbach, Germany) of healthy donors obtained from the University clinics Mannheim, Germany, after informed consent.
PBMCs and isolated CD8+ lymphocytes were incubated in T-cell medium (TCM) until use consisting of RPMI-Glutamax (Invitrogen, Karlsruhe, Germany) supplemented with 10% heat inactivated human AB serum (PAN-Biotech, Aidenbach, Germany), 100 U/ml Penicillin/100 μg/ml Streptomycin (Cambrex, Cologne, Germany), 1 mM sodium pyruvate (CC Pro, Oberdorla, Germany), 20 μg/ml Gentamycin (Cambrex). 2.5 ng/ml IL-7 (PromoCell, Heidelberg, Germany) and 10 U/ml IL-2 (Novartis Pharma, Nürnberg, Germany) were also added to the TCM at this step.
Generation of pMHC/anti-CD28 coated beads, T-cell stimulations and readout was performed in a highly defined in vitro system using four different pMHC molecules per stimulation condition and 8 different pMHC molecules per readout condition.
The purified co-stimulatory mouse IgG2a anti human CD28 Ab9.3 (Jung et al., 1987) was chemically biotinylated using Sulfo-N-hydroxysuccinimidobiotin as recommended by the manufacturer (Perbio, Bonn, Germany). Beads used were 5.6 μm diameter streptavidin coated polystyrene particles (Bangs Laboratories, Ill., USA).
800.000 beads/200 μl were coated in 96-well plates in the presence of 4×12.5 ng different biotin-pMHC, washed and 600 ng biotin anti-CD28 were added subsequently in a volume of 200 μl. Stimulations were initiated in 96-well plates by co-incubating […] CD8+ T cells with 2×10^5 washed coated beads in 200 μl TCM supplemented with 5 ng/ml IL-12 (PromoCell) for 3 days at 37° C. Half of the medium was then exchanged by fresh TCM supplemented with 80 Uml IL-2 and incubating was continued for 4 days at 37° C. This stimulation cycle was performed for a total of three times. For the pMHC multimer readout using 8 different pMHC molecules per condition, a two-dimensional combinatorial coding approach was used as previously described (Andersen et al., 2012) with minor modifications encompassing coupling to 5 different fluorochromes. Finally, multimeric analyses were performed by staining the cells with Live/dead near IR dye (Invitrogen, Karlsruhe, Germany), CD8-FITC antibody clone SK1 (BD, Heidelberg, Germany) and fluorescent pMHC multimers. For analysis, a BD LSRII SORP cytometer equipped with appropriate lasers and filters was used. Peptide specific cells were calculated as percentage of total CD8+ cells. Evaluation of multimeric analysis was done using the FlowJo software (Tree Star, Oreg., USA). In vitro priming of specific multimer+ CD8+ lymphocytes was detected by comparing to negative control stimulations.

Substance | Peptide exchange (MHC class I binding score, peptide exchange yield) (HLA-A*02:01) | Wells positive [%] (CD8+ T cells) | wells (in vitro immunogenicity, positive wells) (CD8+ T cells)
82 (ALSSVIKEL; listed as Homo sapiens) [compound 82] | +++ (≥50 = +++) | + (<20% = +) | 
2 (VMFNFPDQATV; listed as Homo sapiens) [compound 2] | +++ (≥50 = +++) | + (<20% = +) | 
11 (KLFAIPILL; listed as Homo sapiens) [compound 11] | +++ (≥50 = +++) | ++++ (≥70 = ++++) | 
132 (NLLAEIHGV; listed as Homo sapiens) [compound 132] |  |  | + (<20% = +)
130 (SLYDNQITTV; listed as Homo sapiens) [compound 130] |  |  | ++ (20%-49% = ++)
110 (GLTETGLYRI; listed as Homo sapiens) [compound 110] | +++ (≥50 = +++) | +++ (50%-69% = +++) | 
129 (RVADYIVKV; listed as Homo sapiens) [compound 129] |  |  | + (<20% = +)
4 (GLLDPGMLVNI; listed as Homo sapiens) [compound 4] | +++ (≥50 = +++) | ++ (20%-49% = ++) | 
39 (GLDPTQFRV; listed as Homo sapiens) [compound 39] | +++ (≥50 = +++) | ++++ (≥70 = ++++) | 
6 (SIMDYVVFV; listed as Homo sapiens) [compound 6] | ++++ (≥75% = ++++) | + (<20% = +) | 
128 (SLAPAGVIRV; listed as Homo sapiens) [compound 128] |  |  | + (<20% = +)
80 (ILMDPSPEYA; listed as Homo sapiens) [compound 80] | +++ (≥50 = +++) | +++ (50%-69% = +++) | 
